Consider three compounds from US8658373B2, “Method of screening for an agent for treating arthritis and promoting growth of articular chondrocytes” (Kazuwa Nakao, priority 2004, dated 2014).

Entries after “also recorded” stand apart in the source; their conditions may differ. Bridges are numbered along the chain shown (N, C = ends). Where no end group is shown, it is not given here.

For assay [1], the system named is collagenase OA mouse model (right knee joint). As to the kind of experiment: Combined effect of NSAID and CNP in collagenase OA model. In kind it is in vivo. Conditions: 7 days. The method, then: An osmotic […]) containing the solutions below was transplanted subcutaneously in the back of a 9-week-old male C57BL/6 J strain mouse. • Solvent: Distilled water containing 5% dextrose (Junsei Chemical Co., Ltd., Japan), 10% mannose (Nacalai Tesque Inc., Japan) and 5 mmol/L hydrochloric acid (Wako Pure Chemical Industries, Japan). • 1 μg/mL solution (6 ng/day) of CNP-22 (Calbiochem Novabiochem). In addition, to examine the effect of the NSAID indomethacin (Sigma) when used alone and in combination with the CNP, an indomethacin suspension in 0.2% carboxymethyl cellulose (Nacalai Tesque Inc., Japan) was administered orally in a forced manner at 1 mg/kg once a day for 4 successive days from the date of pump transplantation described above. On the date of pump transplantation and the following day, 6 μL of 0.15% type II collagenase (Sigma) and 6 μL of 1.5% type II collagenase solutions, respectively, were injected into the right knee joint, the breadth of both the right and left knee joints was measured daily with a slide caliper (Mitutoyo Corp., Japan) for 7 days after injection, and the difference between the right and left knee joints was calculated. This difference represented the swelling of knee joints, and the AUC was compared between the solvent control and CNP groups by the Student's t-test (SAS ver. 6.12).

In assay [2] the test system is blood thromboxane B2 (TXB2) level. Conditions: LPS administration in mice; cited from earlier work.
In assay [3] the test system is mouse bone marrow macrophages (BMM). The following applies: stimulation of mouse BMM with LPS; cited from earlier work.
Assay [4] relates to surgical OA mouse model (right knee joint). As to the kind of experiment: Therapeutic effect of CNP infusion on surgical OA mouse model. Conditions: 4, 8 and 11 days postoperatively. In kind it is in vivo. The method, then:
An osmotic pump (2004 model, Durect) containing the solutions below was transplanted subcutaneously in the back of a 9-week-old male C57BL/6 J strain mouse (CLEA Japan, Japan). • Solvent: Distilled water containing 5% dextrose (Junsei Chemical Co., Ltd., Japan), 10% mannose (Nacalai Tesque Inc., Japan) and 5 mmol/L hydrochloric acid (Wako Pure Chemical Industries, Japan). • […] solution (60 ng/day) of CNP-22 (Calbiochem Novabiochem). • […] solution (600 ng/day) of CNP-22 (Calbiochem Novabiochem).
On the following day of transplantation, the mouse was anesthetized with ether and subjected to the surgical procedures of anterocrucial ligament excision, medial collateral ligament excision and medial meniscus total resection in the right knee joint to induce osteoarthritis. The breadth of both the right and left knee joints was measured on time with a slide caliper (Mitutoyo Corp.) for 11 days after administration, and the difference between the right and left knee joints was calculated. This difference represented the swelling of knee joints, and the AUC was compared between the solvent control and CNP groups by the Student's t-test (SAS Preclinical Package, SAS Institute Japan, Japan).

Assay [5] has as its system adjuvant arthritis rat model. As to the kind of experiment: Effect of CNPs on adjuvant arthritis rat model. It is filed as in vivo. The following applies: CNP-22 60 ng/day; for arthritis score of the limb ends vs solvent control: osmotic pump subcutaneous; for body weight vs solvent control: days 7 and 10 from antigen sensitization.
For assay [6], the system named is collagen arthritis rat model. As to the kind of experiment: Effect of CNPs on collagen arthritis rat model. In kind it is in vivo. The following applies: CNP-22 6 μg/day, days 21, 24 and 28 from antigen sensitization. The method, then:
An osmotic pump (2004 model, Durect) containing the solutions below was transplanted subcutaneously in the back of a 10-week-old female DA/Slc strain rat (Japan SLC, Inc., Japan). • Solvent: Distilled water containing 5% dextrose (Junsei Chemical Co., Ltd., Japan), 10% mannose (Nacalai Tesque Inc., Japan) and 5 mmol/L hydrochloric acid (Wako Pure Chemical Industries, Japan). • 1 mg/mL solution (6 μg/day) of CNP-22 (Calbiochem Novabiochem).
Immediately after transplantation, bovine type II collagen (Collagen Technology Training Co., Japan) was dissolved in 0.1 mol/L aqueous acetic acid so as to make 1.5 mg/mL and suspended in an equal volume of Freund Incomplete Adjuvant (DIFCO LABORATORIES), and 400 μL of the suspension was inoculated into the skin on the back of a rat. Changes in body weight were also measured on a daily basis. In addition, changes in body weight were also measured in a normal group receiving neither pump transplantation nor inoculation.

For assay [7], the system named is collagenase OA mouse model (right knee joint). As to the kind of experiment: Therapeutic effect of CNP infusion on collagenase osteoarthritic mouse model. Conditions: for AUC of knee joint swelling (difference between right and left knee joint breadth) vs solvent control: 1.5% collagenase, 28 days; for swelling of the right knee joint vs solvent control: 6 days following 1.5% collagenase. It is filed as in vivo. The method, then: An osmotic pump (2004 model, Durect) containing the solutions below was transplanted subcutaneously in the back of a 9-week-old male C57BL/6 J strain mouse. • Solvent: Distilled water containing 5% dextrose (Junsei Chemical Co., Ltd., Japan), 10% mannose (Nacalai Tesque Inc., Japan) and 5 mmol/L hydrochloric acid (Wako Pure Chemical Industries, Japan). • 10 μg/mL solution (60 ng/day) of CNP-22 (Calbiochem Novabiochem). • 100 μg/mL solution (600 ng/day) of CNP-22 (Calbiochem Novabiochem.).
Six days after transplantation, 6 μL of 1.5% type II collagenase (Sigma) solution was injected into the right knee joint, the breadth of both the right and left knee joints was measured on time with a slide caliper (Mitutoyo Corp., Japan) for 28 days after injection, and the difference between the right and left knee joints was calculated. This difference represented the swelling of knee joints, and the AUC was compared between the solvent control and CNP groups by the Student's t-test (SAS ver. 6.12). […] Hematoxylin-eosin-stained and safranin O-stained samples were prepared according to the method as described in Example 5, and analyzed histopathologically.

[8] abbreviates: CNP-22 60 ng/day continuous subcutaneous.
[9] abbreviates: CNP-22 600 ng/day continuous subcutaneous.

Take `COc1ccc2c(c1)c(CC(=O)O)c(C)n2C(=O)c1ccc(Cl)cc1` [indomethacin]: the “swelling of knee joints (AUC) vs solvent control” value in assay [1] (indomethacin 1 mg/kg oral once a day for 4 days, alone) is reported as “not inhibitory; also recorded: did not”.
In the case of “ANP: atrial sodium peptide, a natriuretic peptide acting via NPR-A (SLRRSSCFGGRMDRIGAQSGLGCNSFRY; ends and bridges not checked; cysteine pairing not given here; UniProt P01160 124-151, looked up) [reference compound]”, in assay [2], the “effect on LPS-increased blood TXB2 level” value is “inhibitory effect”. The “inhibitory effect on the enhancement of PGE2 production” value in assay [3] was “up to 70%”.
As to “Gly Leu Ser Lys Gly Cys Phe Gly Leu Lys Leu Asp Arg Ile Gly Ser Met Ser Gly Leu Gly Cys (GLSKGCFGLKLDRIGSMSGLGC; disulfide 6-22; listed as Homo sapiens) [CNP-22, CNP-22 (Calbiochem Novabiochem) used in the tests]”, the “AUC of knee joint swelling vs solvent control” value in assay [4] (setting [8]) and in assay [4] (setting [9]) was “significantly lower; also recorded: significantly inhibited” throughout. Besides, the “arthritis score of the limb ends vs solvent control” value in assay [5] is “lower”; in assay [5] (listed as CNP), “somewhat lower”. Moreover, the results for the “body weight vs solvent control” value in assay [5] and in assay [5] (listed as CNP) were “significantly heavy” and “increased significantly”, respectively. Moreover, the results for the “body weight (body weight loss) vs solvent control” value in assay [6] and in assay [6] (listed as CNP) were “significantly heavy” and “significantly smaller”, respectively. Besides, the “synovial cell growth, granulation and inflammatory cell infiltration in the synovial membrane (histopathology)” value in assay [7] (CNP group vs solvent control, collagenase-induced) was “remarkably reduced”. For the same compound, the “degeneration of the articular cartilage” value in assay [7] (CNP group, osmotic pump infusion) is given as “significantly reduced”. In addition, the “AUC of knee joint swelling (difference between right and left knee joint breadth) vs solvent control” value in assay [7] (CNP-22 60 ng/day continuous subcutaneous (osmotic pump)) and in assay [7] (CNP-22 600 ng/day continuous subcutaneous (osmotic pump)) was “significantly lower” each time. For the same compound, the “swelling of the right knee joint vs solvent control” value in assay [7] (setting [8]) and in assay [7] (setting [9]) was “significantly inhibited” throughout. Besides, the “swelling of knee joints (AUC) vs solvent control” value in assay [1] (CNP-22 6 ng/day continuous subcutaneous alone) was “significantly inhibited”. Besides, the “inhibitory effect on the enhancement of PGE2 production” value in assay [3] is “up to 20%”.
